{"source": "patent US9783552B2", "about": "“Soluble guanylate cyclase activators” (MERCK SHARP & DOHME CORP., priority 2013, dated 2017)", "molecular_target": "T1, sGC α1/β1 heterodimer (Homo sapiens, UniProt Q02108+Q02153)", "T1 construct": "expressed in transfected cells", "T1 sequence (Q02108 1-690)": "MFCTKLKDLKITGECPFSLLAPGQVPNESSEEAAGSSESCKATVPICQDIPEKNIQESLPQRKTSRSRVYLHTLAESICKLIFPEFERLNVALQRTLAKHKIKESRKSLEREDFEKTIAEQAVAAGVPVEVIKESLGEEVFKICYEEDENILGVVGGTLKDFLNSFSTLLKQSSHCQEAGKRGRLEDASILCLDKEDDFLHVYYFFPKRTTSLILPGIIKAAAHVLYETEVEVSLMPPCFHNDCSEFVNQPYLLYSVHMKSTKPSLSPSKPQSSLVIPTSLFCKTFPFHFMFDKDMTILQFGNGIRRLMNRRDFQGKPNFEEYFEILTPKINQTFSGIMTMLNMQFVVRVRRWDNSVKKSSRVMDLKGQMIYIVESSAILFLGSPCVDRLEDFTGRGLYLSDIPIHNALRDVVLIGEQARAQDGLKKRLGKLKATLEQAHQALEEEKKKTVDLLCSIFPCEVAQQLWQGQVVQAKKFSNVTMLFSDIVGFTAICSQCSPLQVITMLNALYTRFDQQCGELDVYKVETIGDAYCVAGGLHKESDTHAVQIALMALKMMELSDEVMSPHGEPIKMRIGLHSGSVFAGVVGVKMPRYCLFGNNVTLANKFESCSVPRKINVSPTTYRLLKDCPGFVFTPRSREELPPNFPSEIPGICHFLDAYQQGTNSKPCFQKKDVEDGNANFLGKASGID", "T1 sequence (Q02153 1-619)": "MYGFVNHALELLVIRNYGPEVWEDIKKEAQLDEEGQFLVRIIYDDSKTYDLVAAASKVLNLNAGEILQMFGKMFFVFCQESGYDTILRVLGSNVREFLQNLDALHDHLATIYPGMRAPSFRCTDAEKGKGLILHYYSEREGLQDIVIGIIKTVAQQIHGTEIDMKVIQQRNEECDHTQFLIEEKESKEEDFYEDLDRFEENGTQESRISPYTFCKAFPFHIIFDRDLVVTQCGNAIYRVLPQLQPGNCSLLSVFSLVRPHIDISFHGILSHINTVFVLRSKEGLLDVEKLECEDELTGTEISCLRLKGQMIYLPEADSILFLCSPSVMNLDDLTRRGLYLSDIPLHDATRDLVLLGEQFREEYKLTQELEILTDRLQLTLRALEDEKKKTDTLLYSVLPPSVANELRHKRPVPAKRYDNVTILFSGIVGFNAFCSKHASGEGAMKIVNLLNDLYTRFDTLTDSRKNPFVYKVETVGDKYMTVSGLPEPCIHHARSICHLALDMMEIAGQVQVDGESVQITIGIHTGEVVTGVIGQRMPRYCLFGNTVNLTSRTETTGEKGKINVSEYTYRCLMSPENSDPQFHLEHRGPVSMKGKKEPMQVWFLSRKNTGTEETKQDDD", "assay": "Cell-Based sGC Functional Assay (CASA Assay)", "details": "CHO-K1/sGC cells; for EC50: intracellular cGMP by HTRF, 1 hr at 37° C., IP from 4P fit, presence or absence of 1 μM DETA-NO not given; for Emax: cGMP as percentage of maximum cGMP production of Compound A (=100% activation), read-out: % ACT (percent activation)", "excerpt": "Biological Assays: Cell-Based sGC Functional Assay (CASA Assay)\nsGC is a heme-containing enzyme that converts GTP to secondary messenger cGMP. Increases in cGMP levels affect several physiological processes including vasorelaxation through multiple downstream pathways. […] Heme-dependent activators (HDAs) preferentially activate sGC containing a ferrous heme group. To determine the effect of sGC activators on enzyme activity, the CASA assay was developed to monitor the generation of cGMP in a cell line that stably expresses the heterodimeric sGC protein.\nA CHO-K1 cell line stably expressing the sGC α1/β1 heterodimer was generated using a standard transfection protocol. CHO-K1 cells were transfected with plasmids pIREShyghsGCα1 and pIRESneo-hsGCβ1 simultaneously using FUGENE reagent. Clones that stably express both subunits were selected with hygromycin and neomycin for ˜2 weeks. Clone #7 was chosen for the assay and was designated CHO-K1/sGC. CHO-K1/sGC cells were maintained in F-K12 medium containing 10% heat-inactivated Fetal Bovine Serum (FBS), 100 μg/mL penicillin/streptomycin, 0.5 mg/mL hygromycin and 0.25 mg/mL G418. The cells were then cryopreserved in LN2. On the day of the assay, cells were thawed and resuspended in EBSS Assay Buffer (EAB, Sigma, E3024) supplemented with 5 mM MgCl2, 10 mM HEPES (4-(2-hydroxyethyl)piperazine-1-ethanesulfonic acid) and 0.05% BSA (bovine serum albumin) and cell density was then adjusted to 4×10^5/mL with EAB. IBMX (3-isobutyl-1-methylxanthin, 0.5 mM) was added to inhibit degradation of cGMP. Compounds were diluted from DMSO stock solutions and added to the assay at a final DMSO concentration of 2.5%. Cells were incubated with compounds in the presence and absence of 1 μM of Diethylenetriamine/nitric oxide adduct (DETA-NO; Sigma, 17018) for 1 hr at 37° C. At the end of the incubation period, the reaction was terminated and the cells were lysed with the detection reagents from Cisbio Kits. The level of intracellular cGMP was determined using an HTRF-based assay kit (CisBio, 62GM2PEC), which detects the displacement of a fluorescence labeled cGMP from its specific antibody. The cGMP produced by test compounds was directly compared to the maximum cGMP production (this value was set to equal 100% activation) of the published sGC-HDA Compound A:\n[drawing 123] (Example 1 in WO 2010/065275, published Jun. 10, 2010). The test compounds' activity was then expressed as a percentage of Compound A, the standard in every experiment. This percent activation was calculated either in the presence or absence of DETA-NO which was then plotted. IP and maximum fold induction was derived using ADA analysis software for 4P fit.", "data": [{"smiles": "[2H]C([2H])([2H])n1ncc2c(-c3nc(N)c4c(n3)NC(=O)C4(C)C#C)nc(CCC(F)(F)C(F)(F)F)nc21", "note": "(single isomer, unassigned) [Example 22, 4-Amino-5-ethynyl-5-methyl-2-(6-(3,3,4,4,4-pentafluorobutyl)-1-trideuteriomethyl-1H-pyrazolo[3,4-d]pyrimidin-4-yl)-5H-pyrrolo[2,3-d]pyrimidin-6(7H)-one]", "values": [{"measurement": "EC50", "result": 46, "unit": "nM"}, {"measurement": "Emax", "result": 128, "unit": "%"}]}, {"smiles": "C#CC1(CC)C(=O)Nc2nc(-c3nc(CCC(F)(F)C(F)(F)F)nc4c3cnn4C)nc(N)c21", "note": "(single isomer, unassigned) [Example 23, 4-Amino-5-ethyl-5-ethynyl-2-(1-methyl-6-(3,3,4,4,4-pentafluorobutyl)-1H-pyrazolo[3,4-d]pyrimidin-4-yl)-5H-pyrrolo[2,3-d]pyrimidin-6(7H)-one]", "values": [{"measurement": "EC50", "result": 49, "unit": "nM"}, {"measurement": "Emax", "result": 106, "unit": "%"}]}, {"smiles": "C#CC1(C2CC2)C(=O)Nc2nc(-c3nc(CCC(F)(F)C(F)(F)F)nc4c3cnn4C)nc(N)c21", "note": "(single isomer, unassigned) [Example 24, 4-Amino-5-cyclopropyl-5-ethynyl-2-(1-methyl-6-(3,3,4,4,4-pentafluorobutyl)-1H-pyrazolo[3,4-d]pyrimidin-4-yl)-5H-pyrrolo[2,3-d]pyrimidin-6(7H)-one]", "values": [{"measurement": "EC50", "result": 105, "unit": "nM"}, {"measurement": "Emax", "result": 120, "unit": "%"}]}, {"smiles": "[2H]C([2H])([2H])n1ncc2c(-c3nc(N)c4c(n3)NC(=O)C4(CCCC)C3CC3)nc(CCC(F)(F)C(F)(F)F)nc21", "note": "(single isomer, unassigned) [Example 25, 4-Amino-5-butyl-5-cyclopropyl-2-(6-(3,3,4,4,4-pentafluorobutyl)-1-trideuteriomethyl-1H-pyrazolo[3,4-d]pyrimidin-4-yl)-5H-pyrrolo[2,3-d]pyrimidin-6(7H)-one]", "values": [{"measurement": "EC50", "result": 49, "unit": "nM"}, {"measurement": "Emax", "result": 80, "unit": "%"}]}, {"smiles": "CCOC(=O)C1(C2CC2)C(=O)Nc2nc(-c3nc(CCC(F)(F)C(F)(F)F)nc4c3cnn4C)nc(N)c21", "note": "(single isomer, unassigned) [Example 26, Ethyl 4-amino-5-cyclopropyl-2-(1-methyl-6-(3,3,4,4,4-pentafluorobutyl)-1H-pyrazolo[3,4-d]pyrimidin-4-yl)-6-oxo-6,7-dihydro-5H-pyrrolo[2,3-d]pyrimidine-5-carboxylate]", "values": [{"measurement": "EC50", "result": 830, "unit": "nM"}, {"measurement": "Emax", "result": 93, "unit": "%"}]}, {"smiles": "CCOC(=O)C1(C2CC2)C(=O)Nc2nc(-c3nc(CCCC(F)(F)F)nc4c3cnn4C)nc(N)c21", "note": "(single isomer, unassigned) [Example 27, Ethyl 4-amino-5-cyclopropyl-2-(1-methyl-6-(4,4,4-trifluorobutyl)-1H-pyrazolo[3,4-d]pyrimidin-4-yl)-6-oxo-6,7-dihydro-5H-pyrrolo[2,3-d]pyrimidine-5-carboxylate]", "values": [{"measurement": "EC50", "result": 602, "unit": "nM"}, {"measurement": "Emax", "result": 98, "unit": "%"}]}, {"smiles": "[2H]C([2H])([2H])n1ncc2c(-c3nc(N)c4c(n3)NC(=O)C4(C(=O)NCC)C3CC3)nc(CCC(F)(F)C(F)(F)F)nc21", "note": "(single isomer, unassigned) [Example 29, 4-Amino-5-cyclopropyl-N-ethyl-2-(6-(3,3,4,4,4-pentafluorobutyl)-1-trideuteriomethyl-1H-pyrazolo[3,4-d]pyrimidin-4-yl)-6-oxo-6,7-dihydro-5H-pyrrolo[2,3-d]pyrimidine-5-carboxamide]", "values": [{"measurement": "EC50", "result": 135, "unit": "nM"}, {"measurement": "Emax", "result": 131, "unit": "%"}]}, {"smiles": "Cn1ncc2c(-c3nc(N)c4c(n3)NC(=O)C4(C)C(N)=O)nc(CCC(F)(F)C(F)(F)F)nc21", "note": "(single isomer, unassigned) [Example 30, 4-Amino-5-methyl-2-(1-methyl-6-(3,3,4,4,4-pentafluorobutyl)-1H-pyrazolo[3,4-d]pyrimidin-4-yl)-6-oxo-6,7-dihydro-5H-pyrrolo[2,3-d]pyrimidine-5-carboxamide]", "values": [{"measurement": "EC50", "result": 245, "unit": "nM"}, {"measurement": "Emax", "result": 84, "unit": "%"}]}, {"smiles": "Cn1ncc2c(-c3nc(N)c4c(n3)NC(=O)C4(C(=O)NC3CC3)C3CC3)nc(CCC(F)(F)C(F)(F)F)nc21", "note": "(single isomer, unassigned) [Example 33, 4-Amino-N,5-dicyclopropyl-2-(1-methyl-6-(3,3,4,4,4-pentafluorobutyl)-1H-pyrazolo[3,4-d]pyrimidin-4-yl)-6-oxo-6,7-dihydro-5H-pyrrolo[2,3-d]pyrimidine-5-carboxamide]", "values": [{"measurement": "EC50", "result": 53, "unit": "nM"}, {"measurement": "Emax", "result": 112, "unit": "%"}]}, {"smiles": "[2H]C([2H])([2H])n1ncc2c(-c3nc(N)c4c(n3)NC(=O)C4(CC)C(=O)NC3CC3)nc(CCC(F)(F)C(F)(F)F)nc21", "note": "(single isomer, unassigned) [Example 34, 4-Amino-N-cyclopropyl-5-ethyl-2-(6-(3,3,4,4,4-pentafluorobutyl)-1-trideuteriomethyl-1H-pyrazolo[3,4-d]pyrimidin-4-yl)-6-oxo-6,7-dihydro-5H-pyrrolo[2,3-d]pyrimidine-5-carboxamide]", "values": [{"measurement": "EC50", "result": 143, "unit": "nM"}, {"measurement": "Emax", "result": 122, "unit": "%"}]}, {"smiles": "[2H]C([2H])([2H])n1ncc2c(-c3nc(N)c4c(n3)NC(=O)C4(C(=O)NC3CC3)C(C)C)nc(CCC(F)(F)C(F)(F)F)nc21", "note": "(single isomer, unassigned) [Example 35, 4-Amino-N-cyclopropyl-5-isopropyl-2-(6-(3,3,4,4,4-pentafluorobutyl)-1-trideuteriomethyl-1H-pyrazolo[3,4-d]pyrimidin-4-yl)-6-oxo-6,7-dihydro-5N-pyrrolo[2,3-d]pyrimidine-5-carboxamide]", "values": [{"measurement": "EC50", "result": 62, "unit": "nM"}, {"measurement": "Emax", "result": 107, "unit": "%"}]}, {"smiles": "[2H]C([2H])([2H])n1ncc2c(-c3nc(N)c4c(n3)NC(=O)C4(CC)C(N)=O)nc(CCC(F)(F)C(F)(F)F)nc21", "note": "(single isomer, unassigned) [Example 36, 4-Amino-5-ethyl-2-(6-(3,3,4,4,4-pentafluorobutyl)-1-trideuteriomethyl-1H-pyrazolo[3,4-d]pyrimidin-4-yl)-6-oxo-6,7-dihydro-5H-pyrrolo[2,3-d]pyrimidine-5-carboxamide]", "values": [{"measurement": "EC50", "result": 878, "unit": "nM"}, {"measurement": "Emax", "result": 121, "unit": "%"}]}, {"smiles": "[2H]C([2H])([2H])n1ncc2c(-c3nc(N)c4c(n3)NC(=O)C4(C(N)=O)C(C)C)nc(CCC(F)(F)C(F)(F)F)nc21", "note": "(single isomer, unassigned) [Example 37, 4-Amino-5-isopropyl-2-(6-(3,3,4,4,4-pentafluorobutyl)-1-trideuteriomethyl-1H-pyrazolo[3,4-d]pyrimidin-4-yl)-6-oxo-6,7-dihydro-5H-pyrrolo[2,3-d]pyrimidine-5-carboxamide]", "values": [{"measurement": "EC50", "result": 540, "unit": "nM"}, {"measurement": "Emax", "result": 93, "unit": "%"}]}]}
